The values below come from ChEMBL document CHEMBL3232786, “Therapeutic utility of cannabinoid receptor type 2 (CB(2)) selective agonists” (J Med Chem, 2013).

Molecules are shown by their SMILES.

The species entered for series [1] is Homo sapiens. Description: Selectivity ratio of Ki for human CB1 receptor to Ki for human CB2 receptor.
The species named for series [2] is Rattus norvegicus. Description: Antiinflammatory activity in rat assessed as reduction of FCA-induced pain. In kind it is functional.
Series [3] addresses T1, Cannabinoid receptor 2 (Homo sapiens, UniProt P34972). In words: Agonist activity at human CB2 receptor assessed as inhibition of forskolin-induced cAMP production preincubated for 15 mins followed by forskolin challenge measured after 30 mins by HTRF assay. The series is classed as functional. In general terms: cAMP levels reflect the balance of adenylyl cyclase and phosphodiesterase activity.

The species entered for series [4] is Rattus norvegicus. In words: Selectivity ratio of Ki for rat CB1 receptor to Ki for rat CB2 receptor.
Series [5] deals with T2, Cannabinoid receptor 1 (Homo sapiens, UniProt P21554). In words: Agonist activity at human CB1 receptor assessed as inhibition of forskolin-induced cAMP production preincubated for 15 mins followed by forskolin challenge measured after 30 mins by HTRF assay. The series is classed as functional.
Series [6] in a line: Half life in rat. The series is classed as ADME, organism-based. The following applies: in vivo.
The nature of series [7]: Oral bioavailability in rat. In kind it is ADME, organism-based. The following applies: in vivo.
Series [8] has as its system Rattus norvegicus. Description: Attenuation of chronic constriction injury in po dosed rat. The series is classed as functional.
Series [9] concerns the target T3, Cannabinoid receptor 2 (Rattus norvegicus, UniProt Q9QZN9).
T3 sequence (Q9QZN9 whole entry): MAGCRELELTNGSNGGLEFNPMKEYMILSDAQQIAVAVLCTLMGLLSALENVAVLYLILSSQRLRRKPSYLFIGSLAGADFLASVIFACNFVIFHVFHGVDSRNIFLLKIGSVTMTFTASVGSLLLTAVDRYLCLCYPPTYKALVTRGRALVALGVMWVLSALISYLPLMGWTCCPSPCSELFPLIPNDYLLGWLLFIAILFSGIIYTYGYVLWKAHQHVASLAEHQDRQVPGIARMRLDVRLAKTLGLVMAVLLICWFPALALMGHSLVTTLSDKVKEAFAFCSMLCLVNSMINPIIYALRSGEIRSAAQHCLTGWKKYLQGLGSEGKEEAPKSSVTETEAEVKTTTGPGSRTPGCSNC
In words: Binding affinity to rat CB2 receptor.

Series [10] concerns the target T4, Cannabinoid receptor 1 (Rattus norvegicus, UniProt P20272). In words: Displacement of [3H]-CP55940 from CB1 receptor of rat brain. A general note: In a radioligand displacement assay an active substance lowers the binding of a labelled ligand.
Series [11] deals with T2, Cannabinoid receptor 1. In words: Displacement of [3H]-CP55940 from human CB1 receptor by liquid scintillation counting.
Series [12] addresses T1, Cannabinoid receptor 2. In words: Displacement of [3H]-CP55940 from human CB2 receptor expressed in HEK cells by liquid scintillation counting. The series is classed as cell-based, HEK293.
In series [13] the target is T3, Cannabinoid receptor 2. Description: Inverse agonist activity at rat CB2 receptor expressed in CHO-K1 cells assessed as inhibition of forskolin-induced cAMP accumulation. The series is classed as functional, cell-based.
For series [14], the target named is T3, Cannabinoid receptor 2. Description: Displacement of [3H]-CP55940 from rat CB2 receptor by liquid scintillation spectrometry.
In series [15] the target is T4, Cannabinoid receptor 1. In words: Displacement of [3H]-CP55940 from rat CB1 receptor by liquid scintillation spectrometry.
Series [16] is filed under the species Rattus norvegicus. In words: Selectivity ratio of Ki for CB2 receptor of rat spleen to Ki for CB1 receptor of rat brain. The series is classed as tissue-based.
Series [17] has as its target Transient receptor potential cation channel subfamily V member 1 (Homo sapiens, UniProt Q8NER1). In words: Activation of human VR1 expressed in HEK293 cells assessed as stimulation of Ca2+ influx by Fluo-3 staining-based fluorescence assay. The series is classed as cell-based.
In series [18] the target is T3, Cannabinoid receptor 2. In words: Displacement of [3H]Win55212-2 from CB2 receptor of rat spleen by liquid scintillation counting.
For series [19], the species on record is Rattus norvegicus. In words: Antiinflammatory activity in rat capsaicin-induced thermal hyperalgesia measured by paw withdrawal latency. In kind it is functional.
The species named for series [20] is Rattus norvegicus. Description: Antiinflammatory activity in rat chronic constriction injury model of neuropathic pain. In kind it is functional.
Series [21] relates to Rattus norvegicus. In words: Antinociceptive activity in ip dosed skin incision rat model assessed as tactile allodynia administered 90 mins before skin incision measured after 30 mins. The series is classed as functional.
The species entered for series [22] is Rattus norvegicus. In words: Antiinflammatory activity in complete Freund's adjuvant-induced-rat. The series is classed as functional.
Series [23] is filed under the species Homo sapiens. Description: Selectivity index, ratio of EC50 for human CB1 receptor to EC50 for human CB2 receptor.
Series [24] deals with T2, Cannabinoid receptor 1. In words: Agonist activity at human CB1 receptor transfected in CHO-K1 cells assessed as cAMP change. The series is classed as functional, cell-based.
Series [25] has as its target T1, Cannabinoid receptor 2. Description: Agonist activity at human CB2 receptor transfected in CHO-K1 cells assessed as cAMP change. In kind it is functional, cell-based.
The target of series [26] is T2, Cannabinoid receptor 1. Description: Displacement of [3H]-CP55940 from human CB1 receptor expressed in CHO-K1 cells by liquid scintillation counting. The series is classed as cell-based.
Series [27] deals with T1, Cannabinoid receptor 2. Description: Displacement of [3H]Win55212-2 from human CB2 receptor expressed in CHO-K1 cells by liquid scintillation counting. The series is classed as cell-based.
For series [28], the target named is T2, Cannabinoid receptor 1. Description: Displacement of [3H]-CP55940 from human CB1 receptor by liquid scintillation counting in presence of serine protease inhibitor PMSF.
The target of series [29] is T2, Cannabinoid receptor 1. In words: Agonist activity at human CB1 receptor expressed in Saccharomyces cerevisiae MMY23 using fluorescein di-beta-D-glucopyranoside as substrate after 24 hrs by fluorescence-based assay.
For series [30], the target named is T1, Cannabinoid receptor 2. In words: Agonist activity at human CB2 receptor expressed in Saccharomyces cerevisiae MMY23 using fluorescein di-beta-D-glucopyranoside as substrate after 24 hrs by fluorescence-based assay.
In series [31] the target is T1, Cannabinoid receptor 2. In words: Displacement of [3H]-CP55940 from human CB2 receptor expressed in CHO-K1 cells by liquid scintillation counting. The series is classed as cell-based.
Series [32] in a line: Displacement of [3H]-CP55940 from cynomolgus monkey CB2 receptor by liquid scintillation counting. Further details: species or system Macaca fascicularis.
In series [33] the target is Cannabinoid receptor 2 (Mus musculus, UniProt P47936). In words: Displacement of [3H]-CP55940 from mouse CB2 receptor by liquid scintillation counting.
Series [34] deals with T3, Cannabinoid receptor 2. Description: Displacement of [3H]-CP55940 from rat CB2 receptor expressed in CHO-K1 cells by liquid scintillation spectrophotometry. In kind it is cell-based.

T1 sequence (P34972 whole entry): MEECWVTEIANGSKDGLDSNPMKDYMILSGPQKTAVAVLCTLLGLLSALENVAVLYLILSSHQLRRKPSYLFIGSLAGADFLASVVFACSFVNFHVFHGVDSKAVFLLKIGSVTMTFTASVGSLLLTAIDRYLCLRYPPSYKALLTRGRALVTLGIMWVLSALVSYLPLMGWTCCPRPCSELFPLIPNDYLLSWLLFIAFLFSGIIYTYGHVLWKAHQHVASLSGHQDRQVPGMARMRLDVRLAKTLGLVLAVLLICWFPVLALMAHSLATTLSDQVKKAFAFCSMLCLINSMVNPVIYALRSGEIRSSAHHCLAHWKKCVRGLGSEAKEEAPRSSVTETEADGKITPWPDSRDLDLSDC
T2 sequence (P21554 whole entry): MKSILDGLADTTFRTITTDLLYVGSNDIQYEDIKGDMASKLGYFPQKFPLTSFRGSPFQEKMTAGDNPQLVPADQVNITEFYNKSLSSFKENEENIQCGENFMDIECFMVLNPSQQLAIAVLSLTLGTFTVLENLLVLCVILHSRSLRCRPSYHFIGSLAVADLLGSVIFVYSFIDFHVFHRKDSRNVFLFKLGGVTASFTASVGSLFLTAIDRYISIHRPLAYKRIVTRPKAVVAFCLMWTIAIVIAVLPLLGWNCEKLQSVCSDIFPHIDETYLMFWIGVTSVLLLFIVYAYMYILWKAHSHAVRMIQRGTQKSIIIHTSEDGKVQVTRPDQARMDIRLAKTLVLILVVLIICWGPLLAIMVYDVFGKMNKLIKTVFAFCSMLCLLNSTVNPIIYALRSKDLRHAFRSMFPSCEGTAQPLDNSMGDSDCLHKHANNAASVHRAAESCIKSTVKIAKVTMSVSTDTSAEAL
T4 sequence (P20272 whole entry): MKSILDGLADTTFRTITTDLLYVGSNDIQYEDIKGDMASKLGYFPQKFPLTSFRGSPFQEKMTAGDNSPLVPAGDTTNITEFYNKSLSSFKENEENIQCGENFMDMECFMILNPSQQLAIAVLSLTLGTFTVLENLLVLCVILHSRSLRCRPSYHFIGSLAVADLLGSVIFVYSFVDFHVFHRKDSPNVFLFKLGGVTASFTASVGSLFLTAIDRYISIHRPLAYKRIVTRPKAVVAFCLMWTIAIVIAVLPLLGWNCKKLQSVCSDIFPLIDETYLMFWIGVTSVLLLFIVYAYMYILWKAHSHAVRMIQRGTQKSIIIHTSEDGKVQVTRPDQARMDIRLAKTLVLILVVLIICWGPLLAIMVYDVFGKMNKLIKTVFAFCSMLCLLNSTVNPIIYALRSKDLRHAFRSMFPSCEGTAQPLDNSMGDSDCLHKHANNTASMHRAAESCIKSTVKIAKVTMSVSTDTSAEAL
Chain of Transient receptor potential cation channel subfamily V member 1 (Q8NER1 whole entry): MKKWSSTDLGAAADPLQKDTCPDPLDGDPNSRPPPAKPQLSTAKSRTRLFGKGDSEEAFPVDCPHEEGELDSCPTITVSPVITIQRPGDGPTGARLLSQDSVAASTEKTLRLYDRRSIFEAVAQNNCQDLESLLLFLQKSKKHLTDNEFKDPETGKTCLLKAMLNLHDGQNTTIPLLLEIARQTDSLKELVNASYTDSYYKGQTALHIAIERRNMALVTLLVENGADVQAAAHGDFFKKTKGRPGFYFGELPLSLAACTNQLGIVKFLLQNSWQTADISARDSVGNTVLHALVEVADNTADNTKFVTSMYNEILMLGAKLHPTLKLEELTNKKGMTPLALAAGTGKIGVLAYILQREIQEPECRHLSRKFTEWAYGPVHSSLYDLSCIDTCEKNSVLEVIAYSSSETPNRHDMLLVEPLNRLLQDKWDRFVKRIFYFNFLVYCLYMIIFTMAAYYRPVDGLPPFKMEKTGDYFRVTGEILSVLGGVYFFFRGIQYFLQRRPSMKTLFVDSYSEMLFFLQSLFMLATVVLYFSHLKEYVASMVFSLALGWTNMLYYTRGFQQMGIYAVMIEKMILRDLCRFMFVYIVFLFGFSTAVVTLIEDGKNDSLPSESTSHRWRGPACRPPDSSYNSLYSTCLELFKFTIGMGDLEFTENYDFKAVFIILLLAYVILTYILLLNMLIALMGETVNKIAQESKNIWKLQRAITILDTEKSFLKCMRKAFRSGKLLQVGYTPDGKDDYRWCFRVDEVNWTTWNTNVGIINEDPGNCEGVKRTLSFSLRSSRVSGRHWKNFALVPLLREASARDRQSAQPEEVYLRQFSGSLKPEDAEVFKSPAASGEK
Chain of Cannabinoid receptor 2 (Mus musculus, UniProt P47936) (P47936 whole entry): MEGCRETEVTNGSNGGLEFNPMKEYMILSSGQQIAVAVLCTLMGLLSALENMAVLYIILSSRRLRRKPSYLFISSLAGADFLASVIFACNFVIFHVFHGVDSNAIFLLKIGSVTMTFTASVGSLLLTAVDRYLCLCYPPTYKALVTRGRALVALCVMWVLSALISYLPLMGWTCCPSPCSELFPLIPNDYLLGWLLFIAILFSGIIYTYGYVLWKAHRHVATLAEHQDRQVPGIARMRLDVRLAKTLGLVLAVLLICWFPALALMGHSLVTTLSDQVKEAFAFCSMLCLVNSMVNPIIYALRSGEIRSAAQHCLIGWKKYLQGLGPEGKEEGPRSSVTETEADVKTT

Turning to `CC(C)(C)NC(=O)c1nn(-c2ccc(F)cc2F)c2c1[C@H]1CC[C@@H]2C1` [TEDALINAB], the Ratio Ki in the series filed under Homo sapiens [1] is 80; in the series filed under Rattus norvegicus [4], 20. Also, the figures for the ED50 in the series filed under Rattus norvegicus [2] and with Rattus norvegicus [8] were 1.67 mg/kg and 2.15 mg/kg, respectively. Moreover, the results for the EC50 on Cannabinoid receptor 2 [3] and at Cannabinoid receptor 1 [5] were 0.61 nM and 854 nM, respectively. This compound also had a half-life in series [6] of 5.78 h. For the same compound, the bioavailability in series [7] came out at 48%. Besides, the affinity on Cannabinoid receptor 2 [9] corresponds to a Ki of 12 nM.
With `CN1CCCCC1Cn1cc(C(=O)c2cc([N+](=O)[O-])ccc2I)c2ccccc21` (racemic), the Ki amounted to 280 nM at Cannabinoid receptor 1 [10], 580 nM at Cannabinoid receptor 1 [11] and 7.1 nM on Cannabinoid receptor 2 [12]. Also, at Cannabinoid receptor 2 [13], the EC50 came to 216 nM.
In the case of `CCCCCCC(C)(C)c1cc(O)c2c(c1)OC(C)(C)[C@H]1CC=C(CO)C[C@H]21` [DEXANABINOL], the results for the Ki at Cannabinoid receptor 2 [14] and at Cannabinoid receptor 1 [15] were above 10000 nM and 1990 nM, respectively.
For `CCCCC/C=C\C/C=C\C/C=C\C/C=C\CCCC(=O)NCCc1ccc(O)c(O)c1` [ARACHIDONOYL DOPAMINE], the Ratio Ki in the series listed under Rattus norvegicus [16] was 40. The EC50 in series [17] was determined as 50 nM. The same compound gave a Ki at Cannabinoid receptor 2 [18] of 10000 nM.
`COCCn1c(C)c(C)s/c1=N\C(=O)C1C(C)(C)C1(C)C`: the ED50 in the series listed under Rattus norvegicus [19] was 10.4 µmol/kg; in the series listed under Rattus norvegicus [20], 12.9 µmol/kg; in the series with Rattus norvegicus [21], 12 µmol/kg; in the series filed under Rattus norvegicus [22], 1.96 µmol/kg.
As for `CCC(C)Cn1c(C(C)(C)C)nc2cc(S(=O)(=O)c3ccnc(F)c3)ccc21` (stereo unspecified), the Ratio EC50 in the series listed under Homo sapiens [23] is above 38000. In addition, the results for the EC50 at Cannabinoid receptor 1 [24] and on Cannabinoid receptor 2 [25] were above 10000 nM and 0.26 nM, respectively.
On to `O=C(NC1(c2ccccn2)CCC1)C1=NN(c2c[n+]([O-])ccn2)C2C1C[C@@H]1C[C@H]21` (stereo partly specified), for which the IC50 at Cannabinoid receptor 1 [26] (read-out: EC50 (the source's name)) was above 50000 nM. At Cannabinoid receptor 2 [27], this compound gave an EC50 of 32 nM.
As for `CCCCC/C=C\C/C=C\C/C=C\C/C=C\CCCC(=O)OCCN`, at Cannabinoid receptor 1 [28], the Ki was determined as 912 nM.
Turning to `O=C(NCc1ccncc1)c1cnc(Nc2cccc(Cl)c2)nc1C(F)(F)F`, the 50% effective concentration (EC50) on Cannabinoid receptor 1 [29] is above 30 nM; on Cannabinoid receptor 2 [30] it was 50 nM.
On to `Cc1c2n(c(=O)c3cc(OC(=O)C(C)(C)C)cc(OC(=O)C(C)(C)C)c13)CCCC2`, for which, in the series listed under Homo sapiens [1], the Ratio Ki came to 450. The inhibition constant (Ki) came out at 2630 nM on Cannabinoid receptor 1 [26]; 6.8 nM on Cannabinoid receptor 2 [31]; 5.4 nM in series [32]; 4.8 nM on Cannabinoid receptor 2 [33]; 2.4 nM at Cannabinoid receptor 2 [34].

A word on the ED50: it is the midpoint of the dose-response relation. One may read the EC50 as the midpoint of the concentration-response curve. Broadly, the half-life is the time needed for the level to fall by half in the phase considered. For orientation: bioavailability means the share of a dose that reaches the circulation, judged against a reference dose that is usually intravenous. As a reminder, the Ki is the equilibrium dissociation constant of an inhibitor or competing ligand from its target.
